According to patent US6358885B1, “Substituted phenylheterocyclic herbicides” (Mississippi State University, priority 1992, dated 2002):

Assays:
lambsquarters = assay: Test B preemergence/postemergence greenhouse plant response rating 0 to 10; format: in vivo, Chenopodium album; details: 0 to 10 scale
Procedure, shortened: (§1)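 Postemergence treatment of plants two to eighteen cm tall ran alongside preemergence treatment of planted seed, each using compound in a non-phytotoxic solvent.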

pigweed = assay: Test C preemergence/postemergence greenhouse plant response rating 0 to 100; format: in vivo, Amaranthusretroflexus; details: POSTEMERGENCE; for Plant response rating Pigweed: 0 to 100 scale
From the text: (§2) The compounds evaluated in this test were formulated in a non-phytoxic solvent and applied to the soil surface before plant seedlings emerged (preemergence application), to water that covered the soil surface (flood application), and to plants that were in the one-to-four leaf stage (postemergence application). A sandy loam soil was used for the preemergence and postemergence tests, while a silt loam soil was used in the flood test. Water depth was approximately 2.5 cm for the flood test and was maintained at this level for the duration of the test. Plant species in the preemergence and postemergence tests consisted of barley (Hordeum vulgare), bedstraw (Galium aparine), blackgrass (Alopecurus myosuroides), chickweed (Stellaria media), corn (Zea mays), cotton (Gossypium hirsutum), crabgrass (Digitaria sanguinalis), downy brome (Bromus tectorum), giant foxtail (Setaria faberii), lambsquarters (Chenopodium album), morningglory (Ipomoea hederacea), pigweed ([…]), rape (Brassica napus), ryegrass (Lolium multiflorum), sorghum (Sorghum bicolor), soybean (Glycine max), speedwell (Veronica persica), sugar beet (Beta vulgaris), velvetleaf (Abutilon theophrasti), wheat (Triticum aestivum), wild buckwheat (Polygonum convolvulus), and wild oat (Avena fatua). All plant species were planted one day before application of the compound for the preemergence portion-of this test. Plantings of these species were adjusted to produce plants of appropriate size for the post-emergence portion of the test. […] All plant species were grown using normal greenhouse practices. Visual evaluations of injury expressed on treated plants, when compared to untreated controls, were recorded approximately fourteen to twenty one days after application of the test compound. […] A dash (-) response means no test result.

velvetleaf [1] = assay: as above; format: in vivo, Abutilon theophrasti; details: POSTEMERGENCE; for Plant response rating, Velvetleaf: 0 to 100 scale
From the text: as §2

rice = assay: Test C flood test plant response rating 0 to 100; format: in vivo, Oryza sativa; details: for Plant response rating (0 to 100), Rice Japonica: under POSTEMERGENCE head (flood test species); for Plant response rating Rice Japonica: flood test species listed under POSTEMERGENCE, 0 to 100 scale
From the text: as §2

crabgrass = assay: Test C preemergence/postemergence greenhouse plant response rating 0 to 100; format: in vivo, Digitaria sanguinalis; details: POSTEMERGENCE; for Plant response rating, Crabgrass: 0 to 100 scale
From the text: as §2

velvetleaf [2] = assay: Test B preemergence/postemergence greenhouse plant response rating 0 to 10; format: in vivo, Abutilon theophrasti; details: 0 to 10 scale
Procedure, shortened: as §1

cotton = assay: Test C preemergence/postemergence greenhouse plant response rating 0 to 100; format: in vivo, Gossypium hirsutum; details: POSTEMERGENCE; for Plant response rating, Cotton: 0 to 100 scale
From the text: as §2

barnyardgrass = assay: Test B preemergence/postemergence greenhouse plant response rating 0 to 10; format: in vivo, Echinochloa crus-galli; details: 0 to 10 scale
Procedure, shortened: as §1

sorghum = assay: Test C preemergence/postemergence greenhouse plant response rating 0 to 100; format: in vivo, Sorghum bicolor; details: POSTEMERGENCE; for Plant response rating, Sorghum: 0 to 100 scale
From the text: as §2

wild oat = assay: as above; format: in vivo, Avena fatua; details: POSTEMERGENCE; for Plant response rating, Wild oat: 0 to 100 scale
From the text: as §2

sugar beet = assay: Test B preemergence/postemergence greenhouse plant response rating 0 to 10; format: in vivo, Beta vulgaris; details: 0 to 10 scale
Procedure, shortened: as §1

giant foxtail = assay: as above; format: in vivo, Setaria faberii; details: 0 to 10 scale
Procedure, shortened: as §1

Structure (SMILES): CC(C)OC(=O)COc1cc(-c2nn3c(c2Cl)CCCC3)c(F)cc1Cl [Compound 39]
- Plant response rating, Lambsquarter (lambsquarters; POSTEMERGENCE, Rate 50 g/ha): 9
- Plant response rating, Lambsquarter (lambsquarters; PREEMERGENCE, Rate 50 g/ha): 10
- Plant response rating, Lambsquarter (lambsquarters; Rate 200 g/ha, POSTEMERGENCE): 10
- Plant response rating, Lambsquarter (lambsquarters; Rate 200 g/ha, PREEMERGENCE): 10
- Plant response rating Pigweed (pigweed; 62 g/ha): 100
- Plant response rating Pigweed (pigweed; 125 g/ha): 100
- Plant response rating (0 to 100), Pigweed (pigweed; Rate 16 g/ha): 90
- Plant response rating (0 to 100), Pigweed (pigweed; Rate 31 g/ha): 100
- Plant response rating, Velvetleaf (velvetleaf [1]; 62 g/ha): 100
- Plant response rating, Velvetleaf (velvetleaf [1]; 125 g/ha): 100
- Plant response rating (0 to 100), Velvetleaf (velvetleaf [1]; Rate 16 g/ha): 100
- Plant response rating (0 to 100), Velvetleaf (velvetleaf [1]; Rate 31 g/ha): 100
- Plant response rating (0 to 100), Rice Japonica (rice; Rate 16 g/ha): 20
- Plant response rating (0 to 100), Rice Japonica (rice; Rate 31 g/ha): 30
- Plant response rating Rice Japonica (rice; 62 g/ha): 30
- Plant response rating Rice Japonica (rice; 125 g/ha): 30
- Plant response rating, Crabgrass (crabgrass; 62 g/ha): 20
- Plant response rating, Crabgrass (crabgrass; 125 g/ha): 30
- Plant response rating (0 to 100), Crabgrass (crabgrass; Rate 16 g/ha): 10
- Plant response rating (0 to 100), Crabgrass (crabgrass; Rate 31 g/ha): 10
- Plant response rating, Velvetleaf (velvetleaf [2]; POSTEMERGENCE, Rate 50 g/ha): 9
- Plant response rating, Velvetleaf (velvetleaf [2]; PREEMERGENCE, Rate 50 g/ha): 2
- Plant response rating, Velvetleaf (velvetleaf [2]; Rate 200 g/ha, POSTEMERGENCE): 10
- Plant response rating, Velvetleaf (velvetleaf [2]; Rate 200 g/ha, PREEMERGENCE): 4
- Plant response rating, Cotton (cotton; 62 g/ha): 100
- Plant response rating, Cotton (cotton; 125 g/ha): 100
- Plant response rating (0 to 100), Cotton (cotton; Rate 16 g/ha): 100
- Plant response rating (0 to 100), Cotton (cotton; Rate 31 g/ha): 100
- Plant response rating, Barnyardgrass (barnyardgrass; POSTEMERGENCE, Rate 50 g/ha): 4
- Plant response rating, Barnyardgrass (barnyardgrass; POSTEMERGENCE, Rate 200 g/ha): 6
- Plant response rating, Barnyardgrass (barnyardgrass; PREEMERGENCE, Rate 50 g/ha): 0
- Plant response rating, Barnyardgrass (barnyardgrass; Rate 200 g/ha, PREEMERGENCE): 2
- Plant response rating, Sorghum (sorghum; 62 g/ha): 50
- Plant response rating, Sorghum (sorghum; 125 g/ha): 60
- Plant response rating (0 to 100), Sorghum (sorghum; Rate 16 g/ha): 20
- Plant response rating (0 to 100), Sorghum (sorghum; Rate 31 g/ha): 30
- Plant response rating, Wild oat (wild oat; 62 g/ha): 20
- Plant response rating, Wild oat (wild oat; 125 g/ha): 30
- Plant response rating (0 to 100), Wild oat (wild oat; Rate 16 g/ha): 10
- Plant response rating (0 to 100), Wild oat (wild oat; Rate 31 g/ha): 20
- Plant response rating, Sugar beet (sugar beet; POSTEMERGENCE, Rate 50 g/ha): 10
- Plant response rating, Sugar beet (sugar beet; PREEMERGENCE, Rate 50 g/ha): 8
- Plant response rating, Sugar beet (sugar beet; Rate 200 g/ha, POSTEMERGENCE): 10
- Plant response rating, Sugar beet (sugar beet; Rate 200 g/ha, PREEMERGENCE): 10
- Plant response rating, Giant foxtail (giant foxtail; POSTEMERGENCE, Rate 50 g/ha): 4
- Plant response rating, Giant foxtail (giant foxtail; PREEMERGENCE, Rate 50 g/ha): 5
- Plant response rating, Giant foxtail (giant foxtail; Rate 200 g/ha, POSTEMERGENCE): 5
- Plant response rating, Giant foxtail (giant foxtail; Rate 200 g/ha, PREEMERGENCE): 2
